This is an account of results in US8618068B2, “Methods and low dose regimens for treating red blood cell disorders” (priority 2009, dated 2013).

Marks after values point to notes of the source that are not given here.

In data set [1] the test system is β- and γ-globin gene promoters. The experiment in a line: Double-luciferase reporter assay of γ-globin expression in GM979 cells. It is filed as cell-based, murine. The source says:
DMB was compared to arginine butyrate (AB) for its ability to induce y-globin expression in a double-luciferase reporter assay in murine erythroleukemia (GM979) cells transfected with the pLCR linked to the β- and γ-globin gene promoters linked to a different luciferase gene.
In general terms: A reporter such as luciferase makes a cellular process visible.

The next data set relates to fetal globin. Particulars: cited from earlier work.
The next data set deals with γ-globin mRNA. The data set can be described thus: γ-globin mRNA in anemic baboons given HU and DMB. The format is in vivo. Particulars: HU 3 days/week.
In the next data set the test system is F-cells. The data set can be described thus: F-cells in Bfu-e erythroid progenitor cultures. It is filed as cell-based.
The subject of data set [2] is micronucleated erythrocytes (PCEs). The following applies: cited from earlier work.

Consider Arginine butyrate [reference compound], for which the “Mean Fold Increase” value in data set [1] (0.5 mM, compared to untreated controls, p ≦ 0.01) is 1.8*. For the same molecule, the “γ/(γ + β) globin Expression, Range” value in data set [1] (Active Concentration 0.5 mM) was 0.029-0.047. `NC(=O)NO` [HU, hydroxyurea]: in the data set with fetal globin (SCD patients), the “patients in whom clinical benefit is observed” value was 40-50%. Moreover, the “treatment required for optimal effects on HbF” value with fetal globin (at a level close to the maximum tolerated dose) was 6-9 months. The “γ-globin mRNA increase above baseline” value with γ-globin mRNA is 80-120%.

As for `Nc1ncn([C@H]2C[C@H](O)[C@@H](CO)O2)c(=O)n1` [decitabine, 5-aza-2′-deoxycytidine, reference compound], the “F-cells increase above F-cell levels in control cultures” value in the data set with F-cells was 66-104%. Consider `O=P1(N(CCCl)CCCl)NCCCO1` (stereo not shown) [cyclophosphamide], for which the “historical positive control values, mean±SD” value in data set [2] is 19.2±15.5 MN PCEs/1,000 PCEs.
